From patent US11286258B2, “Nature-inspired anticancer and antibacterial motifs and pharmaceutical composition thereof” (University of Sharjah, priority 2020, dated 2022) come the findings set out here.

Usually IC50 stands for the concentration that inhibits the measured activity by half. High values mean weaker potency in that assay, low ones greater potency in that assay.

In one assay the test system is SKOV3. As to the kind of experiment: MTT cell viability, SKOV3. The format is cell-based. Conditions: Homo sapiens, SK-OV-3; 48 h of drug treatment; average of three experiments. The protocol: (§1) Cell viability studies: Cell viability was assessed using the MTT assay as described before. In brief, all cancer cell lines were seeded at a density of 4×10^4/well in 96 well flat-bottom plates. After 24 h from seeding, cells were treated with the synthesized compounds and left for an incubation period of 48 h. Upon reaching the indicated time point, the media was removed and replaced with 200 μL fresh media containing 0.5 mg/mL of MTT tetrazolium dye (Sigma-Aldrich). Cells were then incubated with MTT solution for 2 h at 37° C. The resultant formazan crystals were dissolved in 200 μl/well of DMSO and absorbance was measured at 570 nm using a microplate reader (Thermo Scientific).

For another assay, the system named is JIMT1. In words: MTT cell viability, JIMT1. In kind it is cell-based. Conditions: Homo sapiens, JIMT-1; breast cancer; 48 h of drug treatment; average of three experiments. The protocol:
as §1

The next assay relates to MDA-MB-468. As to the kind of experiment: MTT cell viability, MDA-MB-468. The format is cell-based. Conditions: Homo sapiens, breast cancer, 48 h of drug treatment, average of three experiments. The protocol: as §1
The test system of another assay is AGS. In words: MTT cell viability, AGS. Conditions: Homo sapiens, stomach cancer, 48 h of drug treatment, average of three experiments. In kind it is cell-based. The protocol: as §1
For a further assay, the system named is SKBR3 and SKOV3. As to the kind of experiment: Crystal violet and DAPI staining. In kind it is cell-based, human. Conditions: compared to compounds 1d and 1k; 48 h. The protocol: Colony formation assay: Human Normal epithelial cells, SKBR3, and SKOV3 cells were treated with 1d, 1e and 1k compounds with indicated concentrations for 48 h. Then cells were fixed with colony fixation solution (Acetic acid/Methanol (1:7) vol/vol) at room temperature. 15 minutes later fixation solution was removed and cells were washed again carefully with 1×PBS. Cells were stained with 0.5% crystal violet at room temperature for 20 minutes. Crystal violet was removed and cells were washed carefully 3 times with distilled water to remove excess dye. Colony growth was visualized by crystal violet staining. DAPI staining: SKBR3 and SKOV3 cells were treated with indicated compounds. After 48 h of treatment, the media were removed from cell lines and cells were washed with 1× cold PBS. Cells were fixed with (Acetic acid/Methanol (1:7) vol/vol)) solution for 15 minutes at RT and then washed with 1× cold PBS. Permeabilization was performed with 0.1% Triton X-100 for 5 minutes and then cells were washed with 1× cold PBS. Cells were stain with DAPI solution for 15 minutes at RT and then cells were washed 3 times with 1× cold PBS. Images were taken using a fluorescence microscope.

For the next assay, the system named is Hela cells. As to the kind of experiment: Western blot, autophagy- and iron metabolism-related proteins, Hela. In kind it is cell-based, human. The protocol:
(§2) Western Blotting (autophagy- and iron metabolism-related proteins): Cells were grown in DMEM supplemented with 10% FBS and 1×PEST (Penicillin and streptomycin antibiotics) at 37° C. in incubator having humidified atmosphere with 5% CO2. The media were removed and cells were washed twice with 1× cold PBS. Cells lysis was performed with RIPA lysis buffer containing (150 mM sodium chloride, 1.0% NP-40, 0.1% SDS, 50 mM Tris pH 8.0, 0.5% sodium deoxycholate supplemented with protease inhibitors cocktail). Cells were kept on icebox during the lysis process. Cold lysis buffer was added to each well directly and then cells were scraped and collected in 1.5 ml Eppendorf tube. Cell lysis was kept on icebox for 20 minutes and then centrifuged at 4° C. for 10 minutes. The supernatant was collected and the pellet was discarded. After, protein quantification, samples were boiled in 5× loading buffer at 95° C. for 5 minutes. After completion of the gel running and transfer process, the membrane was stained with ponceau solution. After that, the membrane was washed with 1×TBST and then blocked in 5% non-fat dry milk for 1 hr at room temperature. The membrane was washed 3 times with 1×TBST and then incubated with indicated primary antibodies at 4° C. overnight. Primary antibodies were removed; the membrane was washed 3 times with 1×TBST and then incubated with secondary antibodies for 2 h at room temperature. Secondary antibodies were diluted in 5% non-fat dry milk in 1× TB ST. After removal of the secondary antibody, the membrane was washed 3 times with 1×TBST. The membrane was incubated in ECL solution and the signal was developed using Gel Doc system from Biorad.

The subject of another assay is SKBR3 cells. In words: Western blot, autophagy- and iron metabolism-related proteins, SKBR3. In kind it is cell-based, human. The protocol:
as §2
For orientation: A western blot detects proteins with antibodies after separation by electrophoresis.

The test system of another assay is Hep3B cells. In words: Western blot, apoptotic biomarkers, tumor suppressor genes and oncogenes, Hep3B. Conditions: for PARP cleavage / Cleavage of caspase7 and caspase-3: 1 to 4 μM, 48 h; for Cleavage of caspase7 and caspase-3: clear at 4 μM; for c-Myc oncogene level: dose-dependent manner. In kind it is cell-based, human. The protocol: Western blotting (apoptotic biomarkers, tumor suppressor genes and oncogenes): Hep3B and HCT-116 cells were treated with 1f and 1h compounds with increasing concentrations from 1 to 4 μM for 48 h. After reaching the time point, proteins were extracted from the collected cells after their lyses, and protein quantification was performed using a Detergent compatible (DC) protein assay kit (Bio-Rad) following the manufacturer's instructions. 12% SDS-polyacrylamide gels were used to separate the proteins, following the proteins were transferred onto nitrocellulose membrane using a semi-dry transfer cell. After transfer, membranes were incubated with primary antibodies and the incubation was left overnight at 4° c. The following antibodies were implicated: anti-β actin (Cell Signalling #4970), anti-caspase3 (Cell Signalling #14220), anti-caspase-7 (Cell Signalling33 #9492), anti-PARP (Cell Signalling #9532), anti-P53 (Cell Signalling #2527), anti-C-myc (Cell Signalling #18583), and anti-BAX (#5023). Finally, membranes were incubated with secondary conjugated with horseradish peroxidase. The indicated proteins were detected by chemiluminescence.

Take `FC(F)(F)c1ccc(N/N=C2\C=C[C@@]3(CC2)CC[C@@H]2NCCc4c2n3c2ccccc42)cc1` (racemic) [Compound 1e]: in the assay with SKOV3, the midpoint of inhibition, the IC50, lay at 3.84 ± 0.21 µM. This compound also returned an IC50 in the assay on JIMT1 of 3.08 ± 0.14 µM. In addition, inhibition in the assay with MDA-MB-468 was half-maximal at 2.5 ± 0.13 µM (IC50). The compound also gave a 50% inhibitory concentration (IC50) in the assay with AGS of 3.31 ± 0.12 µM. Besides, the “Nuclear damage in cancer cell lines (DAPI staining)” value with SKBR3 and SKOV3 was “greater levels of nuclear damage”. Also, in the assay with Hela cells, the “Expression and metabolism of autophagy marker LC3B1/II” value was “upregulate”; the “Expression of Ferritin heavy chain (FTH1)” value was “inhibits”; the “Expression of cell cycle marker CDK6” value is “inhibits”; the “Expression of cellular iron exporter protein Ferroportin (FPN)” value was “inhibits”. Also, in the assay on SKBR3 cells, the “Expression of BECLIN-1” value was “induced”, the “Expression of Ferritin (FTH1)” value is recorded as “induced”, the “Expression of LC3B1/II” value is “induced” and the “Expression of pH2AX” value is “induced”.
On to `FC(F)(F)Oc1ccc(N/N=C2\C=C[C@@]3(CC2)CC[C@@H]2NCCc4c2n3c2ccccc42)cc1` [Compound 1f], for which, in the assay with Hep3B cells, the PARP cleavage entry is listed as “PARP cleavage”; the “Cleavage of caspase7 and caspase-3” value is “cleavage”; the c-Myc oncogene level result is listed as “downregulate”.
As to `Cc1ccc2c(c1)c1c3n2[C@@]2(C=C/C(=N\Nc4ccc(C(F)(F)F)cc4)CC2)CC[C@@H]3NCC1` [Compound 1h], in the assay with Hep3B cells, the PARP cleavage entry is “PARP cleavage”; the “Cleavage of caspase7 and caspase-3” value was “cleavage”; the c-Myc oncogene level result is “downregulate”.
In the case of `COc1ccc2c(c1)c1c3n2[C@@]2(C=C/C(=N\Nc4ccc(C(F)(F)F)cc4)CC2)CC[C@@H]3NCC1` [Compound 1k], the IC50 turned out to be 4.68 ± 0.22 µM with SKOV3, 3.49 ± 0.06 µM with JIMT1, 2.49 ± 0.16 µM in the assay with MDA-MB-468 and 4.66 ± 0.15 µM in the assay on AGS. Further, the “Expression and metabolism of autophagy marker LC3B1/II” value with Hela cells was “upregulate”. For the same compound, the “Expression of DNA damage marker pH2AX” value with Hela cells is given as “induce”.
